The source made the active and inactive calls. The calls are words filed in the database; no cut-off is given here.
What was measured:
MC-38 [1] = experiment: In vivo antitumor activity against mouse MC38 cells allografted in C57BL/6 mouse assessed as apoptosis in tumor at 50 mg/kg, po treated 5 days after cell inoculation 19 th day relative to control; assay type: functional, organism-based; details: time 15.0 day
[2] = Half life in Sprague-Dawley rat at 20 mg/kg, po measured upto 12 hrs by LC-MS/MS analysis; assay type: ADME, organism-based; details: in vivo
[3] = Tmax in Sprague-Dawley rat at 20 mg/kg, iv measured upto 12 hrs by LC-MS/MS analysis; assay type: ADME, organism-based; details: in vivo
Mus musculus [4] = experiment: (§1) Immunomodulatory effect in C57BL/6 mouse allografted mouse MC38 cells assessed as increase in tumor infiltrating lymphocytes by measuring increase in CD4+ T helper cells in mouse lymph nodes in presence of NP19 PD-L1 inhibitor at 50 mg/kg, po treated 5 days after cell inoculation 19 th day by flow cytometry analysis (reference value: 15.5%); assay type: functional; details: time 15 day
[5] = AUC (0 to infinity) in Sprague-Dawley rat at 20 mg/kg, iv measured upto 12 hrs by LC-MS/MS analysis; assay type: ADME, organism-based; details: in vivo
MC-38 [6] = experiment: Induction of PD-L1 expression in mouse MC38 cells in presence of JQ-1 BRD4 inhibitor at 2 uM measured after 24 hrs incubation by Western blot analysis; assay type: functional, cell-based
Mus musculus [7] = experiment: (§2) Immunomodulatory effect in C57BL/6 mouse allografted mouse MC38 cells assessed as increase in tumor infiltrating lymphocytes by measuring increase in CD8+ T […] cells in tumor at 50 mg/kg, po treated 5 days after cell inoculation 19 th day by flow cytometry analysis (reference value: 2.32%); assay type: functional; details: time 15 day
[8] = Tmax in Sprague-Dawley rat at 20 mg/kg, po measured upto 12 hrs by LC-MS/MS analysis; assay type: ADME, organism-based; details: in vivo
[9] = Toxicity in C57BL/6 mouse allografted with mouse MC38 cells assessed as pathological changes in lung at 50 mg/kg, po treated 5 days after cell inoculation 19 th day by hematoxylin and eosin analysis; assay type: organism-based; details: in vivo, 360 h, time 15 day
Mus musculus [10] = experiment: as §2, with “[…] in mouse lymph nodes at 50” for “cells in tumor at 50”, “(reference value: 20.3%)” for “(reference value: 2.32%)”; assay type: functional; details: time 15 day
[11] = Clearance in Sprague-Dawley rat at 20 mg/kg, po measured upto 12 hrs by LC-MS/MS analysis; assay type: ADME, organism-based; details: in vivo
[12] = Clearance in Sprague-Dawley rat at 20 mg/kg, iv measured upto 12 hrs by LC-MS/MS analysis; assay type: ADME, organism-based; details: in vivo
[13] = Toxicity in C57BL/6 mouse allografted with mouse MC38 cells assessed as pathological changes in heart at 50 mg/kg, po treated 5 days after cell inoculation 19 th day by hematoxylin and eosin analysis; assay type: organism-based; details: in vivo, 360 h, time 15 day
Mus musculus [14] = experiment: Induction of PD-L1 expression in tumor in C57BL/6 mouse allografted with mouse MC38 cells in presence of NP19 PD-L1 inhibitor at 50 mg/kg, po treated 5 days after cell inoculation 19 th day by immunofluorescence analysis; assay type: functional, organism-based; details: time 15.0 day
[15] = Acute toxicity in C57 mouse assessed as body weight change; details: in vivo
Mus musculus [16] = experiment: as §1, with “[…]” for “CD4+”, “20.3%)” for “15.5%)”; assay type: functional; details: time 15 day
MC-38 [17] = experiment: In vivo antitumor activity against mouse MC38 cells allografted in C57BL/6 mouse assessed as decrease in […] positive cells in tumor in presence of NP19 PD-L1 inhibitor at 50 mg/kg, po treated 5 days after cell inoculation 19 th day by immunofluorescence analysis; assay type: functional, organism-based; details: time 15.0 day
MC-38 [18] = experiment: In vivo antitumor activity against mouse MC38 cells allografted in C57BL/6 mouse assessed as apoptosis in tumor in presence of NP19 PD-L1 inhibitor at 50 mg/kg, po treated 5 days after cell inoculation 19 th day relative to control; assay type: functional, organism-based; details: time 15.0 day
Mus musculus [19] = experiment: Immunomodulatory effect in C57BL/6 mouse allografted mouse MC38 cells assessed as increase in tumor infiltrating lymphocytes by measuring increase in CD4+ T helper cells in tumor at 50 mg/kg, po treated 5 days after cell inoculation 19 th day by flow cytometry analysis (reference value: 2.57%); assay type: functional; details: time 15 day
[20] = MRT (0 to infinity) in Sprague-Dawley rat at 20 mg/kg, iv measured upto 12 hrs by LC-MS/MS analysis; assay type: ADME, organism-based; details: in vivo
MC-38 [21] = experiment: Induction of mitochondrial membrane damage in mouse MC38 cells assessed as increase in JC-1 monomers by measuring green fluorescence at 8 uM measured after 48 hrs (reference value: 3.13%); assay type: functional
MC-38 [22] = experiment: In vivo antitumor activity against mouse MC38 cells allografted in C57BL/6 mouse assessed as tumor growth inhibition at 50 mg/kg, po treated 5 days after cell inoculation 19 th day relative to control; assay type: functional; details: MC-38, 360 h, time 15 day, read-out: TGI
[23] = Toxicity in C57BL/6 mouse allografted with mouse MC38 cells assessed as body weight loss in presence of NP19 PD-L1 inhibitor at 50 mg/kg, po treated 5 days after cell inoculation 19 th day; assay type: organism-based; details: in vivo, 360 h, time 15 day
Mus musculus [24] = experiment: as §1, with “[…]” for “CD4+”, “blood” for “lymph nodes”, “0.35%)” for “15.5%)”; assay type: functional; details: time 15 day
[25] = Volume of distribution at steady state in Sprague-Dawley rat at 20 mg/kg, iv measured upto 12 hrs by LC-MS/MS analysis; assay type: ADME, organism-based; details: in vivo, read-out: Vdss
Mus musculus [26] = experiment: as §1, with “[…]” for “CD4+”, “spleen” for “lymph nodes”, “13.6%)” for “15.5%)”; assay type: functional; details: time 15 day
MC-38 [27] = experiment: In vivo antitumor activity against mouse MC38 cells allografted in C57BL/6 mouse assessed as increase in Tunel-positive cells in tumor at 50 mg/kg, po treated 5 days after cell inoculation 19 th day by immunofluorescence analysis; assay type: functional, organism-based; details: time 15.0 day
MC-38 [28] = experiment: Induction of PD-L1 expression in mouse MC38 cells measured after 24 hrs incubation by immunofluorescence staining analysis; assay type: functional, cell-based; details: dose 1-4 µM
MC-38 [29] = experiment: In vivo antitumor activity against MC38 cells allografted in C57BL/6 mouse assessed as tumor growth inhibition in presence of NP19 PD-L1 inhibitor at 50 mg/kg, po treated 5 days after cell inoculation 19 th day relative to control; assay type: functional; details: MC-38, 360 h, time 15 day, read-out: TGI
[30] = Toxicity in C57BL/6 mouse allografted with mouse MC38 cells assessed as urea nitrogen (BUN) level in serum at 50 mg/kg, po treated 5 days after cell inoculation 19 th day; assay type: organism-based; details: in vivo, 360 h, time 15 day
[31] = Toxicity in C57BL/6 mouse allografted with mouse MC38 cells assessed as pathological changes in spleen at 50 mg/kg, po treated 5 days after cell inoculation 19 th day by hematoxylin and eosin analysis; assay type: organism-based; details: in vivo, 360 h, time 15 day
Mus musculus [32] = experiment: Induction of acetylated H3 level in tumor in C57BL/6 mouse allografted with mouse MC38 cells at 50 mg/kg, po treated 5 days after cell inoculation 19 th day by immunofluorescence analysis; assay type: functional, organism-based; details: time 15.0 day
Mus musculus [33] = experiment: Immunomodulatory effect in C57BL/6 mouse allografted mouse MC38 cells assessed as increase in tumor infiltrating lymphocytes by measuring increase in CD4+ T helper cells in mouse blood at 50 mg/kg, po treated 5 days after cell inoculation 19 th day by flow cytometry analysis (reference value: 0.27%); assay type: functional; details: time 15 day

Question: For `CCCNNC(=O)c1ccc(CNC(=O)c2cnc(-c3ccc4occc4c3)[nH]2)cc1`, which Activity (MC-38 [1]) is on record?
Answer: Active

Question: And the half-life [2]?
Answer: 3.13 h

Question: What about the Tmax [3] of the same compound?
Answer: 4.8 min

Question: And the Activity (Mus musculus [4])?
Answer: 20%

Question: What about the AUC [5] of the same compound?
Answer: 1249.2 ng·h/mL

Question: And the Activity (MC-38 [6])?
Answer: Active

Question: What about the Activity (Mus musculus [7]) of the same compound?
Answer: 5.29%

Question: And the Tmax [8]?
Answer: 0.88 h

Question: What about the Activity [9] of the same compound?
Answer: Non-toxic

Question: What about the Activity (Mus musculus [10]) of the same compound?
Answer: 29.6%

Question: What about the CL/F [11] of the same compound?
Answer: 259 mL/min/kg

Question: And the CL [12]?
Answer: 27.8 mL/min/kg

Question: And the Activity [13]?
Answer: Non-toxic

Question: And the Activity (Mus musculus [14])?
Answer: Active

Question: What about the LD50 [15] of the same compound?
Answer: > 200 mg/kg

Question: And the Activity (Mus musculus [16])?
Answer: 31.6%

Question: What about the Activity (MC-38 [17]) of the same compound?
Answer: Active

Question: What about the Activity (MC-38 [18]) of the same compound?
Answer: Active

Question: What about the Activity (Mus musculus [19]) of the same compound?
Answer: 1.72%

Question: And the MRT inf [20]?
Answer: 1.2 h

Question: And the Activity (MC-38 [21])?
Answer: 28.37%

Question: And the inhibition in vivo at 50 mg/kg (MC-38 [22])?
Answer: 63%

Question: And the Activity [23]?
Answer: Non-toxic

Question: What about the Activity (Mus musculus [24]) of the same compound?
Answer: 0.83%

Question: What about the Vd [25] of the same compound?
Answer: 2.35 L/kg

Question: And the Activity (Mus musculus [26])?
Answer: 17.4%

Question: And the Activity (MC-38 [27])?
Answer: Active

Question: What about the Activity (MC-38 [28]) of the same compound?
Answer: Dose-dependent-effect

Question: And the inhibition in vivo at 50 mg/kg (MC-38 [29])?
Answer: 80%

Question: And the Activity [30]?
Answer: Non-toxic

Question: And the Activity [31]?
Answer: Non-toxic

Question: And the Activity (Mus musculus [32])?
Answer: Active

Question: What about the Activity (Mus musculus [33]) of the same compound?
Answer: 0.84%

Reference: ChEMBL document CHEMBL6121046, “Discovery of Novel Hydrazide-Based HDAC3 Inhibitors as Epigenetic Immunomodulators for Cancer Immunotherapy” (J Med Chem, 2025)
